Reference: US20070270336A1, “Method for accelerating cutaneous barrier recovery” (Shiseido Company, Ltd., priority 2006, published 2007)
“Also recorded” adds a separate entry of the source.

Columns and labels:
hairless mice flank skin = experiment: Permeability barrier recovery (TEWL) after tape stripping; type: in vivo, mouse; settings: for permeability barrier recovery after tape stripping (percent recovery of TEWL): single topical application after tape stripping, each reagent 1 mM (FIG. 1 legend), 1, 3 and 6 hours, vs water control
Method: All experiments were performed on 7-10-week old male hairless mice (HR-1, Hoshino, Japan). All procedures for measuring of skin barrier function, disrupting the barrier and applying the sample were carried out under anesthesia. All experiments were approved by the Animal Research Committee of the Shiseido Research Center in accordance with the National Research Council Guide. 1-EBIO, diazoxide, gilbenclamide, minoxidil, dequalinium were purchased from Tocris (TOCRIS, Bristol, UK). Valinomycin was purchased from Wako (Wako Osaka, Japan).
(§1) Permeability barrier function was evaluated by measurement of transepidermal water loss (TEWL) with an electric water analyzer, as described previously (Denda, M., Sato J., Masuda Y., Kuramoto M., Elias P. M., Feingold K. R. (1998). J Invest Dermatol 111(5): 858-63). For barrier recovery experiments, both sides of flank skin were treated with repeated tape stripping until the TEWL reached 7-10 mg per cm^2 per h. […] The areas were covered with plastic membranes for 15 min (both treated and control sites) and then the membranes were removed. Previous studies have shown that occlusion for a longer period of time delays barrier repair. […] Two points on one side of a flank were measured and 4-8 mice were used to evaluate the effects of each treatment. We always disrupted the barrier between 7:00AM to 8:00AM to avoid variations in repair rate due to the influence of circadian rhythm. TEWL was then measured over the same sites at 1, 3 and 6 hours after barrier disruption. The barrier recovery results are expressed as percent of recovery, because of variations from day to day in the extent of barrier disruption. In each animal, the percentage of recovery was calculated by the following formula: (TEWL immediately after barrier disruption−TEWL at indicated time point)/(TEWL immediately after barrier disruption−baseline TEWL)×100%). All experiments were performed on 7 to 10-week-old male hairless mice (HR-1, Hoshino, Japan). All procedures including measurement of skin barrier function, disruption of the barrier, and application of test samples were carried out under anesthesia.

[1] = test system: differentiated cultured human keratinocytes (CHK); experiment: Evaluation of intracellular potassium levels (PBFI-AM fluorescence); type: cell-based; settings: FIG. 3
Method: Evaluation of intracellular potassium levels All in vitro cell culture measurements were carried out using second passage human neonatal keratinocytes. We incubated cells in a low calcium medium (0.1 mM calcium, HuMedia-KG2, KURABO, Osaka, Japan) for at least 5 days and used the cells within 10 days. These keratinocytes were incubated until 100% of confluency, incubated 3 more days, and then incubated in a high calcium medium (1.8 mM calcium) for 24 hours to induce differentiation of the keratinocytes. We then added PBF1-AM (Molecular Probes, Eugene, Oreg.), final concentration 10 μM, and then incubated the cells for 4 hours at 37 C. The cultured keratinocytes were then washed in the medium described above. The cover slip was mounted on a fluorescence microscope (IX70, TS Olympus, Tokyo, Japan) equipped with a 75 W xenon-lamp and band-path filters of 340 nm. Measurements were carried out at the room temperature. Imaging data, recorded by a high-sensitive silicon intensifier target camera (C4742, Hamamatsu Photonics, Hamamatsu, Japan) were recorded by a fluorescence analyzing system (AQUACOSMOS/RATIO1, Hamamatsu Photonics, Hamamatsu, Japan).

[2] = test system: mouse epidermis (stratum granulosum lamellar bodies); experiment: Electron-microscopic study of lamellar body secretion after acetone treatment; type: in vivo; settings: one hour after acetone treatment; electron microscopy; FIG. 4
Text: The full thickness of skin samples for electron microscopy was minced into pieces (<0.5 mm^3) and fixed in modified Karnovsky's fixative overnight. They were then post-fixed in 2% aqueous osmium tetroxide or 0.2% ruthenium tetroxide as described previously (Denda et al. 1998, op. cit.). After fixation, all samples were dehydrated in graded ethanol solutions, and embedded in an Epon-epoxy mixture. Thin sections were stained with lead citrate and uranyl acetate and viewed by electron microscopy.

hairless mice epidermis = experiment: Epidermal hyperplasia induced by barrier disruption under low humidity; type: in vivo, mouse
Method: Animals were kept separately in 7.2 liter cages in which the relative humidity was maintained at less than 10% with dry air as described previously (Denda et al. 1998a). The temperature was the same in all cases (22-25° C.), and fresh air was circulated 100 times per hour. Animals were kept out of the direct stream of air. During the experiments, the animal's behavior was not restricted. The level of NH3 was always below 1 ppm. Animals were first kept in a dry condition for 48 hours and then the skin on both flank sides was treated with acetone-soaked cotton balls, as described previously (Denda et al. 1998a). The procedure was terminated when TEWL reached 2.5-3.5 mg per cm^2 per h. Immediately after the barrier disruption, 100 ul of Diazoxide aqueous solution (100 uM) was applied on one side of the treated area. Water was applied on the other side. Then the animals were again kept in the dry condition for 48 hours. After the experiments, animals were euthanized with diethylether inhalation and skin samples were taken from the treated area. […] On each section, five areas were selected at random; the thickness of the epidermis was measured with an optical micrometer, and the mean value was calculated. […] On each section, five areas were selected at random from one section; the number of immunostained cells per 1 mm of epidermis was counted and the mean value was calculated. […]

hairless mouse flanks = experiment: Permeability barrier recovery (TEWL) after acetone treatment; type: in vivo; settings: topical potassium ionophore; FIG. 2B; n=4
Method: as §1, with “[…] Immediately after” for “For”, “disruption 100 μl” for “recovery experiments, both sides”, “an aqueous solution containing 1 μM of reagent or water alone (control) was applied to the” for “flank skin were”, “area.” for “with repeated tape stripping until the TEWL reached 7-10 mg per cm^2 per h.”, “All experiments were performed on 7 to 10-week-old male hairless mice (HR-1, Hoshino, Japan). All procedures including measurement of skin barrier function, disruption of the barrier, and application of test samples were carried out under anesthesia.” left out

| Structure (SMILES) | permeability barrier recovery after tape stripping (percent recovery of TEWL) (hairless mice flank skin) | change in intracellular potassium (K+) concentration ([1]; 10 μM final concentration) | lamellar body (LB) secretion at SG-SC interface [2] | other results |
| --- | --- | --- | --- | --- |
| CCn1c(=O)[nH]c2ccccc21 [1-EBIO, 1-Ethyl-2-benzoimidazollnone] | significantly accelerated barrier repair; also recorded: accelerated barrier recovery | decreased intracellular K^+ concentrations; also recorded: decreased intracellular potassium concentrations |  |  |
| Cc1cc(N)c2ccccc2[n+]1CCCCCCCCCC[n+]1c(C)cc(N)c2ccccc21 [dequalinium, 1,1-(1,10-Decanedyl)bis(4-amino-2-methylquinolinium)dichloride] | significantly delayed barrier recovery |  |  |  |
| CC1=Nc2ccc(Cl)cc2S(=O)(=O)N1 [diazoxide, 7-chloro-3-methyl-2H-1,2,4-benzothiadiazine 1,1-dioxide] | significantly accelerated barrier repair; also recorded: accelerated barrier recovery | decreased intracellular K^+ concentrations; also recorded: decreased intracellular potassium concentrations | much more secreted material is evident at SG-SC interface; also recorded: accelerated the secretion of LB | epidermal hyperplasia induced by acetone treatment under low humidity (hairless mice epidermis; topical 100 uM aqueous solution, 48 hours dry condition, vs water, FIG. 5): prevented the epidermal hyperplasia; epidermal proliferation (BrdU positive cells), quantified (hairless mice epidermis; topical 100 uM, FIG. 6, 6 control mice and 5 treated, ANOVA probability 0.0372): Significant reductions of epidermal proliferation |
| COc1ccc(Cl)cc1C(=O)NCCc1ccc(S(=O)(=O)NC(=O)NC2CCCCC2)cc1 [gilbenclamide, 5-chloro-N{2-[4[[[cycohexylamino]carbonyl]amino]sulfonyl]phenyl}-2-metyhoxybenzamide] | significantly delayed barrier recovery |  |  |  |
| CC(C)[C@@H]1NC(=O)[C@H](C)OC(=O)[C@@H](C(C)C)NC(=O)[C@@H](C(C)C)OC(=O)[C@H](C(C)C)NC(=O)[C@H](C)OC(=O)[C@@H](C(C)C)NC(=O)[C@@H](C(C)C)OC(=O)[C@H](C(C)C)NC(=O)[C@H](C)OC(=O)[C@@H](C(C)C)NC(=O)[C@@H](C(C)C)OC1=O [valinomycin] |  |  | much more secreted material is evident at SG-SC interface; also recorded: accelerated the secretion of LB | permeability barrier recovery after acetone treatment (hairless mouse flanks): accelerated barrier recovery; permeability barrier recovery after tape stripping (hairless mice flank skin; topical potassium ionophore, FIG. 2A, n=4): accelerated barrier recovery; change in intracellular potassium (K+) concentration ([1]; 1 μM final concentration): decreased intracellular K^+ concentrations; also recorded: decreased intracellular potassium concentrations |
